Target: T1, DPP-IV from porcine kidneys (Sus scrofa, UniProt P22411)
T1 construct: DPP-IV from porcine kidneys (Sigma, Munich); purchased Sigma, Munich; host or cells: porcine kidney (tissue-derived enzyme)
Assay: Measurement of the DPP-IV activity (fluorimetric conversion of H-Ala-Pro-AFC)
Type: biochemical
Details: at 30 μm compound; DPP-IV 1 mU/ml, H-Ala-Pro-AFC 15 μm, Tris/HCl pH 7.4, room temperature
Procedure: Measurement of the DPP-IV Activity:
DPP-IV from porcine kidneys (Sigma, Munich)
H-Ala-Pro-AFC (Bachem, Weil am Rhein)
DPP-IV (1 mU/ml, end concentration)
H-Ala-Pro-AFC (15 μm end concentration) in Tris/HCl (40 mM, pH 7.4), total volume 0.2 ml
The reaction was performed at room temperature for different periods (typically 10 minutes) and stopped at the end of the reaction by adding 20 μl of ZnCl2 (1 M). The conversion of H-Ala-Pro-AFC was determined fluorimetrically by measuring the emission at 535 nm on excitation at 405 nm. In the case of addition of inhibitors, the buffer volume added was adjusted such that a total volume of the test mixture of 200 μl was maintained.
% inhibition at a fixed concentration was calculated as follows: (1-enzyme activityinhibited reaction/enzyme activityuninhibited reaction)×100

T1 sequence (P22411 whole entry): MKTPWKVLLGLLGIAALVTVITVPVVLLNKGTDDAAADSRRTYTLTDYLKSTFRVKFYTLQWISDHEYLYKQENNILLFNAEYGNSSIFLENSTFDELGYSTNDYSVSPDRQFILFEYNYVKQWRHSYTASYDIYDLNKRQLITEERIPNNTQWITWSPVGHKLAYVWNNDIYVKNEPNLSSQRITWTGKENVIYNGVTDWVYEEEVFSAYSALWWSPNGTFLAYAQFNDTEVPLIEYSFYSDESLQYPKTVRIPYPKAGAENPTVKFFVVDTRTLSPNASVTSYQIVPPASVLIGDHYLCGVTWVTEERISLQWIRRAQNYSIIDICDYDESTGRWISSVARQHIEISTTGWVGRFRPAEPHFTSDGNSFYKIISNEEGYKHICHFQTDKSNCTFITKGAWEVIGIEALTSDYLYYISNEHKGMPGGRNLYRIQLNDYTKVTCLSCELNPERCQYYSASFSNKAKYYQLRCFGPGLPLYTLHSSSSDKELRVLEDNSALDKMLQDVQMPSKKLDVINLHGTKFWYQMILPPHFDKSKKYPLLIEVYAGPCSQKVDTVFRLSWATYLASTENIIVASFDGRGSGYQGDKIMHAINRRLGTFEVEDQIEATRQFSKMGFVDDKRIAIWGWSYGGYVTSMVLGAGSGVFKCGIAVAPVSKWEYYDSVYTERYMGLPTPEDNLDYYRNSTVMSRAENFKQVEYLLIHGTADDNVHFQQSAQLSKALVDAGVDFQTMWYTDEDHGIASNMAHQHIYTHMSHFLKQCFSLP

SMILES: CC(C)=CCn1c(N2CCC3CNCC32)nc2ccc(NC(=O)c3ccccc3)cc21 (stereo not shown) [Example 1]
- % inhibition at 30 μm: 25%

— patent US7569700B2, “Substituted, bicyclic 8-pyrrolidinobenzimidazoles, methods for their production and their use as medicaments” (sanofi - aventis, priority 2005, dated 2009)
